Columns and labels:
[1] = system: SPX1 phosphate starvation biomarker; assay: Chemical activity assessment with Arabidopsis pSPX1::GUS reporter line (GUS stained area); assay type: in vivo, Arabidopsis thaliana
Procedure: (§1) All Arabidopsis plant experiments were performed using the Arabidopsis thaliana Columbia-0 background. The Arabidopsis pSPX1::GUS line is described in the Plant Journal 2008, 54: 965-975. For rice, the cultivar Nipponbare was used. For maize, the cultivars DKC 2931 and B104 were used for regular pot experiments and sand-based pot experiments, respectively. For soybean, the cultivar Primus was used. […] The medium was solidified due to the addition of 0.6% Gelrite, unless stated otherwise. In case of vertical plates (root length and root hair measurements), the medium was supplied with 0.5% of sucrose and 1 μM (low phosphate, 1 μM KH2PO4, 9.9 mM KCl), 10 μM (low phosphate 10 μM KH2PO4, 9.9 mM KCl) or 1.25 mM KH2PO4 (high phosphate). Arabidopsis seeds were stratified for 2 days at 4° C. before germination. Seedlings were germinated in climate-controlled growth chambers at 22° C. under continuous light (100 μmol m^−2 s^−1). Husked rice seeds were germinated on wetted Whatman paper for 2 days at 37° C. and then transferred to Sterivent boxes or square Petri dishes with solid medium. Maize and soybean seeds were wetted 24 hours at room temperature prior to sowing in pots.
For the chemical activity assessment 3 to 8 seeds per well of Arabidopsis pSPX1::GUS line were sown in 96-well plates containing 150 μl of low phosphate modMS liquid medium containing 1% of sucrose. Compounds were added in 50 μM concentration, starting from a 5 mM stock of compounds solved in DMSO. Different chemical substances were separately added to different wells. Per plate, 16 control wells were used, 8 containing only the low phosphate medium and 1% DMSO, and 8 containing high phosphate medium and 1% DMSO. 7 days after germination, plates were scanned using a flatbed scanner (EPSON Expression 11000XL) and analyzed for leaf size. After scanning, the growth medium was replaced by GUS staining solution (see Plant Mol. Biol. Rep. 1994, 12: 37-42 for details) and incubated for 1.5 hours at 37° C. The plates were scanned a second time and analyzed for GUS signal area. Measurements of both leaf area and GUS signal area were conducted by filtering out and measure the green and blue signal, respectively using ImageJ software. If the green leaf area was 50% or less than the control, samples were omitted. Additionally, all results were visually screened for leaf size and GUS signal.

[2] = system: Arabidopsis; assay: Anthocyanin quantification, Arabidopsis 96-well plate; assay type: in vivo, Arabidopsis thaliana; conditions: low phosphate, 50 μM, 7 days after germination, control = 1
Procedure: Col-0 ecotype Arabidopsis seeds were sown in 96-well plates containing 150 μl of low phosphate modMS liquid medium containing 1% of sucrose. Compounds was added in 50 μM concentration (1% DMSO). Eight plants per repeat were collected 7 days after germination and put into a fresh Eppendorf. Extraction and quantification of anthocyanin levels was carried out according to The Plant cell 2013, 25:1641-1656. Anthocyanin levels were quantified by measuring absorption at 530 and 657 nm using a spectrophotometer and normalized to fresh weight input, and expressed relative to the low phosphate control. For pot experiments, the same procedure was followed with one 4-week old plant per sample.

[3] = system: Rice; assay: Rice plate experiment; assay type: in vivo, rice cultivar Nipponbare; conditions: low phosphate 0.001 mM, 10 μM, 11 days after germination, control 14.4
Procedure: (§2) All Arabidopsis plant experiments were performed using the Arabidopsis thaliana Columbia-0 background. The Arabidopsis pSPX1::GUS line is described in the Plant Journal 2008, 54: 965-975. For rice, the cultivar Nipponbare was used. For maize, the cultivars DKC 2931 and B104 were used for regular pot experiments and sand-based pot experiments, respectively. For soybean, the cultivar Primus was used. […] The medium was solidified due to the addition of 0.6% Gelrite, unless stated otherwise. […]
(§3) Arabidopsis primary root growth experiments were done on MS1/2 on vertical standing plates and roots were measured 11 days after germination. Roots were imaged using a flatbed scanner (EPSON Expression 11000XL) and root length was measured using ImageJ software. Arabidopsis shoot biomass was determined in 11 days after germination and growth on vertical standing plates with modMS. Arabidopsis leaf area was measured 21 days after germination on horizontal plates with modMS medium. Plates were scanned from the top using a flatbed scanner (EPSON Expression 11000XL) and the visible leaf area was measured using ImageJ software. […] Plant height was measured 11 days after germination. […] Plant height was measured 13 days after germination. […]

[4] = system: Rice; assay: Rice box experiment; assay type: in vivo, rice cultivar Nipponbare; conditions: low phosphate 0.025 mM, 10 μM, 13 days after germination, control 1.1
Procedure: as §2, §3

[5] = system: Maize; assay: Sand-based maize pot experiment; assay type: in vivo, maize cultivar B104; conditions: low phosphate
Procedure: as §1
Regular Arabidopsis, soybean and maize pot experiments used an unfertilized potting soil, which was supplemented at the start of the experiment with 50 ml H2O containing 0.25 g/l NH4NO3 and 0.44 g/l (high phosphate) or no (maize and soybean) or 0.11 g/l KH2PO (Arabidopsis) for low phosphate conditions. For the sand-based maize pot experiment, sand was supplemented with 50 ml H2O containing 0.25 g/l NH4NO3 and 0.38 g/l (high phosphate) or 0.02 g/l (low phosphate) KH2PO4. Potassium was balanced via addition of KCl. Compound concentration was 10 μM, calculated based on the total water content after watering, and was added at the start of the experiment (Arabidopsis) or once a week (maize). Indexed chlorophyll contents were received via a SPAD 502 Plus Chlorophyll Meter. All parameters in the sand experiment, except the rate of leaf 4 (measured the first 4 days after emergence), were measured 19 days after sowing. Measurements in the pot experiments with potting soil were done after 4 weeks of growth, except for leaf 5, which was measured at 26 days. One long-term maize pot experiment was conducted with the DKC 2931 (2.5 months) and B104 (3 months) cultivars on the PHENOVISION phenotyping platform as described in Frontiers in Plant Science 2021, 12: 640914, except that an unfertilized potting soil was used and that plants were fertilized with a low-phosphate Hoagland solution. The 2.5× overconcentrated low-phosphate Hoagland solution contained 0.034 g/l KH2PO and 200 mL of this solution was applied twice a week. […]

[6] = system: Maize; assay: Regular maize pot experiment (potting soil); assay type: in vivo, maize cultivar DKC 2931; conditions: low phosphate, 10 μM
Procedure: as §1
Regular Arabidopsis, soybean and maize pot experiments used an unfertilized potting soil, which was supplemented at the start of the experiment with 50 ml H2O containing 0.25 g/l NH4NO3 and 0.44 g/l (high phosphate) or no (maize and soybean) or 0.11 g/l KH2PO (Arabidopsis) for low phosphate conditions. […] Compound concentration was 10 μM, calculated based on the total water content after watering, and was added at the start of the experiment (Arabidopsis) or once a week (maize). […] All parameters in the sand experiment, except the rate of leaf 4 (measured the first 4 days after emergence), were measured 19 days after sowing. Measurements in the pot experiments with potting soil were done after 4 weeks of growth, except for leaf 5, which was measured at 26 days. […]

## CC1CN(CC(=O)c2c(N)n(C)c(=O)n(C)c2=O)c2ccccc2O1 (stereo not drawn) [Compound 8, 6-amino-1,3-dimethyl-5-[2-(2-methyl-2,3-dihydro-1,4-benzoxazin-4-yl)acetyl]pyrimidine-2,4-dione]
[1]; 7 days of growth in low phosphate, confirmed in two experimental repeats
  Suppression of the SPX1 biomarker (GUS staining): practically completely suppressed the SPX1 biomarker
[1]; low phosphate, 50 μM, 7 days after germination, compare with low phosphate controls of same plate (Table 5 c3)
  GUS (SPX1) stained area normalized to the number of seeds: 26 pixels
[2]
  Relative anthocyanin level: 0.6
[3]
  Plant height: 16 cm
[4]
  Plant height: 3.1 cm
[5]; 10 μM once a week, 19 days after sowing, control 21
  Plant height: 28 cm
[5]; 19 days after sowing, SPAD, control 28
  Indexed chlorophyll content: 32
[5]; 19 days after sowing, control 2
  Crown root number: 7
[5]; first 4 days after emergence, control 2.04
  Growth rate of leaf 4: 2.46 cm/day
[6]; 4 weeks, control 4
  Shoot weight: 4.6 g
[6]; 4 weeks, control 57
  Plant height: 60 cm
[6]; 26 days, control 40
  Leaf 5: 48 cm
